Test results published in patent publication US20230157952A1, “METHOD FOR IMPROVING THE STABILITY OF A PHARMACEUTICAL COMPOSITION COMPRISING A HIGH PENETRATION DRUG, AND THE PHARMACEUTICAL COMPOSITION OBTAINED THEREFROM” (Techfields Inc., priority 2020, published 2023).

Test: Effect of temperature (and pH) on the stability of the solution (purity)
Format: physicochemical
Conditions: 7% solution in water

CCN(CC)CCOC(=O)CC1=C(C)C(=Cc2ccc([S+](C)[O-])cc2)c2ccc(F)cc21.Cl (stereo not shown)
Purity(%) at day 0 (pH 1.0, day 0): 97.2 ± 0.3% | Purity(%) at day 21 (5° C.) (pH 1.0, day 21, 5° C.): 91.1 ± 0.4% | Purity(%) at day 21 (25° C.) (pH 1.0, day 21, 25° C.): 67.5 ± 0.4% | Purity(%) at day 21 (40° C.) (pH 1.0, day 21, 40° C.): 10.4 ± 0.4% | Purity (%) at day 21 (60° C.) (pH 1.0, day 21, 60° C.): 0% | Purity(%) at day 0 (pH 2.0, day 0): 97.3 ± 0.3% | Purity(%) at day 21 (5° C.) (pH 2.0, day 21, 5° C.): 94.7 ± 0.3% | Purity(%) at day 21 (25° C.) (pH 2.0, day 21, 25° C.): 81.1 ± 0.3% | Purity(%) at day 21 (40° C.) (pH 2.0, day 21, 40° C.): 23.6 ± 0.3% | Purity (%) at day 21 (60° C.) (pH 2.0, day 21, 60° C.): 0% | Purity(%) at day 0 (pH 3.0, day 0): 97.6 ± 0.2% | Purity(%) at day 21 (5° C.) (pH 3.0, day 21, 5° C.): 96.3 ± 0.2% | Purity(%) at day 21 (25° C.) (pH 3.0, day 21, 25° C.): 92.2 ± 0.2% | Purity(%) at day 21 (40° C.) (pH 3.0, day 21, 40° C.): 45.7 ± 0.3% | Purity (%) at day 21 (60° C.) (pH 3.0, day 21, 60° C.): 0% | Purity(%) at day 0 (pH 3.7, day 0): 97.6 ± 0.2% | Purity(%) at day 21 (5° C.) (pH 3.7, day 21, 5° C.): 97.3 ± 0.2% | Purity(%) at day 21 (25° C.) (pH 3.7, day 21, 25° C.): 96.8 ± 0.2% | Purity(%) at day 21 (40° C.) (pH 3.7, day 21, 40° C.): 55.5 ± 0.2% | Purity (%) at day 21 (60° C.) (pH 3.7, day 21, 60° C.): 13.5 ± 0.3% | Purity(%) at day 0 (pH 4.0, day 0): 97.9 ± 0.1% | Purity(%) at day 21 (5° C.) (pH 4.0, day 21, 5° C.): 97.4 ± 0.1% | Purity(%) at day 21 (25° C.) (pH 4.0, day 21, 25° C.): 96.9 ± 0.1% | Purity(%) at day 21 (40° C.) (pH 4.0, day 21, 40° C.): 60.3 ± 0.2% | Purity (%) at day 21 (60° C.) (pH 4.0, day 21, 60° C.): 19.7 ± 0.3% | Purity(%) at day 0 (pH 4.3, day 0): 97.7 ± 0.2% | Purity(%) at day 21 (5° C.) (pH 4.3, day 21, 5° C.): 97.3 ± 0.1% | Purity(%) at day 21 (25° C.) (pH 4.3, day 21, 25° C.): 96.7 ± 0.1% | Purity(%) at day 21 (40° C.) (pH 4.3, day 21, 40° C.): 63.1 ± 0.1% | Purity (%) at day 21 (60° C.) (pH 4.3, day 21, 60° C.): 16.8 ± 0.2% | Purity(%) at day 0 (pH 4.6, day 0): 97.8 ± 0.1% | Purity(%) at day 21 (5° C.) (pH 4.6, day 21, 5° C.): 97.3 ± 0.2% | Purity(%) at day 21 (25° C.) (pH 4.6, day 21, 25° C.): 95.9 ± 0.2% | Purity(%) at day 21 (40° C.) (pH 4.6, day 21, 40° C.): 57.3 ± 0.2% | Purity (%) at day 21 (60° C.) (pH 4.6, day 21, 60° C.): 15.5 ± 0.3% | Purity(%) at day 0 (pH 5.0, day 0): 97.7 ± 0.3% | Purity(%) at day 21 (5° C.) (pH 5.0, day 21, 5° C.): 96.1 ± 0.2% | Purity(%) at day 21 (25° C.) (pH 5.0, day 21, 25° C.): 93.9 ± 0.3% | Purity(%) at day 21 (40° C.) (pH 5.0, day 21, 40° C.): 38.9 ± 0.3% | Purity (%) at day 21 (60° C.) (pH 5.0, day 21, 60° C.): 1.5 ± 0.3% | Purity(%) at day 0 (pH 6.0, day 0): 97.5 ± 0.3% | Purity(%) at day 21 (5° C.) (pH 6.0, day 21, 5° C.): 94.4 ± 0.3% | Purity(%) at day 21 (25° C.) (pH 6.0, day 21, 25° C.): 88.9 ± 0.2% | Purity(%) at day 21 (40° C.) (pH 6.0, day 21, 40° C.): 21.6 ± 0.2% | Purity (%) at day 21 (60° C.) (pH 6.0, day 21, 60° C.): 0% | Purity(%) at day 0 (pH 7.0, day 0): 97.3 ± 0.3% | Purity(%) at day 21 (5° C.) (pH 7.0, day 21, 5° C.): 89.0 ± 0.3% | Purity(%) at day 21 (25° C.) (pH 7.0, day 21, 25° C.): 59.8 ± 0.3% | Purity(%) at day 21 (40° C.) (pH 7.0, day 21, 40° C.): 5.4 ± 0.3% | Purity (%) at day 21 (60° C.) (pH 7.0, day 21, 60° C.): 0% | Purity(%) at day 0 (pH 8.0, day 0): 96.9 ± 0.4% | Purity(%) at day 21 (5° C.) (pH 8.0, day 21, 5° C.): 77.1 ± 0.3% | Purity(%) at day 21 (25° C.) (pH 8.0, day 21, 25° C.): 44.5 ± 0.4% | Purity(%) at day 21 (40° C.) (pH 8.0, day 21, 40° C.): 0% | Purity (%) at day 21 (60° C.) (pH 8.0, day 21, 60° C.): 0%
